# In the supplement of paper PMC10307832:
# What was measured:
# Test in all cases: relative viability (nuclei count vs DMSO), 5 days (fraction); higher = more cells survive
# Tanzisertib + Pemetrexed = compound: O[C@H]1CC[C@H](Nc2ncc3nc(Nc4c(F)cc(F)cc4F)n([C@H]4CCOC4)c3n2)CC1 [Tanzisertib] + Nc1nc2[nH]cc(CCc3ccc(C(=O)N[C@@H](CCC(=O)O)C(=O)O)cc3)c2c(=O)[nH]1 [Pemetrexed] (partner 0.2 µM)
# How it was run: (§1)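 The day after seeding in 1536-well plates, lung cancer cell lines were treated by pin tool with a single drug, or with a fixed anchor-drug dose together with five library-drug doses (not always all listed) in √10 steps. After 5 days, a combined fix-and-stain solution (final 0.05% Triton X-100, 1% formaldehyde, 1 ug/ml Hoechst) was added. Nuclei counted on 4× images gave relative viability as treated counts over vehicle counts, reported as the median of duplicate plates.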
# Tanzisertib + Pictilisib = compound: O[C@H]1CC[C@H](Nc2ncc3nc(Nc4c(F)cc(F)cc4F)n([C@H]4CCOC4)c3n2)CC1 [Tanzisertib] + CS(=O)(=O)N1CCN(Cc2cc3nc(-c4cccc5[nH]ncc45)nc(N4CCOCC4)c3s2)CC1 [Pictilisib] (partner 1 µM)
# How it was run: as §1
# Tanzisertib + Luminespib = compound: O[C@H]1CC[C@H](Nc2ncc3nc(Nc4c(F)cc(F)cc4F)n([C@H]4CCOC4)c3n2)CC1 [Tanzisertib] + CCNC(=O)c1noc(-c2cc(C(C)C)c(O)cc2O)c1-c1ccc(CN2CCOCC2)cc1 [Luminespib] (partner 0.01 µM)
# How it was run: as §1
# [1] = compound: C1CNCCC1C2=CC(=NN2)C3=CC=NC=C3 + C[C@@H](Oc1cc(-c2cnn(C3CCNCC3)c2)cnc1N)c1c(Cl)ccc(F)c1Cl [Crizotinib] (partner 1 µM)
# How it was run: as §1
cell line,measurement,setting,value
UMC-11,relative viability,Tanzisertib + Pemetrexed; first compound 0.08 µM,0.801
same,relative viability,Tanzisertib + Pemetrexed; first compound 0.253 µM,0.793
same,relative viability,Tanzisertib + Pemetrexed; first compound 0.8 µM,0.784
same,relative viability,Tanzisertib + Pemetrexed; first compound 2.53 µM,0.816
same,relative viability,Tanzisertib + Pemetrexed; first compound 8 µM,0.833
same,relative viability,Tanzisertib + Pictilisib; first compound 0.08 µM,0.874
same,relative viability,Tanzisertib + Pictilisib; first compound 0.253 µM,0.85
same,relative viability,Tanzisertib + Pictilisib; first compound 0.8 µM,0.909
same,relative viability,Tanzisertib + Pictilisib; first compound 2.53 µM,0.798
same,relative viability,Tanzisertib + Pictilisib; first compound 8 µM,0.711
same,relative viability,Tanzisertib + Luminespib; first compound 0.08 µM,1.1
same,relative viability,Tanzisertib + Luminespib; first compound 0.253 µM,1
same,relative viability,Tanzisertib + Luminespib; first compound 0.8 µM,0.946
same,relative viability,Tanzisertib + Luminespib; first compound 2.53 µM,1.08
same,relative viability,Tanzisertib + Luminespib; first compound 8 µM,1.03
same,relative viability,[1]; first compound 0.08 µM,0.69
same,relative viability,[1]; first compound 0.8 µM,0.577
same,relative viability,[1]; first compound 2.53 µM,0.713
same,relative viability,[1]; first compound 8 µM,0.63
